Data: publication PMC3600310, “Phage Display Screening for Tumor Necrosis Factor-α-Binding Peptides: Detection of Inflammation in a Mouse Model of Hepatitis” (International Journal of Peptides, 2013)

Tests used:
TNF-α = TNF-α detection by biotinylated 2C and 2L peptides in liver histological sections; set-up: species or system mouse; conditions: biotinylated peptide 20 μM overnight, ABC complex/DAB, ex vivo
Protocol: Adult mice (n = 6) received a single i.p. injection of 20 mg/Kg of ConA [21], a lymphocyte T activator producing inflammation in mice liver.
Mice were sacrificed 2 hours after intravenous injection of ConA, and their livers were fixed for 24 h in 4% paraformaldehyde. After fixation, the liver was dehydrated by several alcohol and butanol soakings and the organ was subsequently embedded in paraffin according to standard procedures. Sections of 4-micrometer thickness were cut for histological tests.
TNF-α detection by the phage display-selected 2C and 2L peptides was carried out with the same protocol as for anti-TNF-α polyclonal antibody (see Section 2.4.2). Briefly, liver sections were incubated overnight with the biotinylated peptides (20 μM). Reactive sites were detected with the ABC complex and DAB staining.

[1] = ELISA interaction of biotinylated peptides with PFBB coated plate (no target); assay type: binding; conditions: free biotinylated peptide; plate coated with protein-free blocking buffer only; Kd* values could not be estimated
Protocol: The affinity of the selected peptides was evaluated by ELISA as for the phage clones (see Section 2.1.3). The target was immobilized overnight on a 96-well plate at 4°C before a 2-hour incubation with a protein-free blocking buffer solution (PFBB, Pierce, Aalst, Belgium) and then with a range of peptide dilutions: 10^‒3 M to 10^‒6 M. The target-bound biotinylated peptides were detected using ABC (Avidin Biotin Complex) and ABTS solutions as described above. The dissociation constant was estimated from the inflection point of the curve.

human TNF-α [2] = test: ELISA competition of phage clones with an anti-TNF-α antibody; assay type: binding; conditions: for IC50: antibody concentration that inhibits by 50% the phage-TNF-α interaction, antibody 1.3 × 10^−9 to 6.66 × 10^−7 M pre-incubated 30 min, then phage at Kd* concentration 1 h, high IC50 = strong phage binding, read-out: IC50 of the anti-TNF-α antibody against the phage clone; for IC50 Ab anti-TNF-α/Kd clone ratio: phage clones, IC50 of the anti-TNF-α antibody divided by Kd* of the clone
Protocol: (b) Competition Experiments with an Anti-TNF-α Antibody. Competition experiments were performed in the same manner as the K d* experiments except that clones were set in competition with an anti-TNF-α antibody (R&D Systems Inc., Abington, UK) in dilutions ranging from 1.3 × 10^−9 to 6.66 × 10^−7 M in a PBS solution. Plates were first incubated for 30 min with 50 μL/well of antibody dilutions before a one-hour incubation with 50 μL of phage solutions at the K d* concentration. The IC50 of the anti-TNF-α antibody is the antibody concentration required to inhibit by 50% the interaction between phages and TNF-α.
The objective of this test is to set up a competition between every phage clone and another ligand of the target to calculate an inhibition constant value (IC50).

human TNF-α [3] = test: ELISA estimation of apparent dissociation constant (Kd*) between phage clones and TNF-α; assay type: binding; conditions: phage clones; ELISA Kd* on BSA divided by Kd* on TNF-α
Protocol: (a) Estimation of the Apparent Dissociation Constant (K d*) between the Phage Clones and TNF-α. The K d* of phage clones against their target was assessed by the ELISA (enzyme-linked immunosorbent assay) method, using a range of phage dilutions incubated with the specific target.
ELISA plates were treated overnight with the target solution (human TNF-α, 0.01 mg/mL, at 4°C). The next day, the target solution was replaced by the blocking solution as described above. Plates were then incubated for 2 h at 37°C with serial phage dilutions (6.5 × 10^−11 – 3.3 × 10^−8 M) prepared in PBS containing 0.3% Tween 20. After rinsing the plate 6 times with the same buffer, phages were detected with a peroxidase-conjugated anti-M13 monoclonal antibody (Amersham Pharmacia Biotech Benelux, Roosendaal, The Netherlands) diluted 1 : 5000 in the blocking buffer. The peroxidase detection was performed using 2,2′-azino-bis[3-ethylbenztiazoline-6-sulfonic acid, diammonium salt] (ABTS, Sigma-Aldrich; 22 mg in 100 mL of 50 mM sodium citrate, pH 4.0) supplemented with 0.05% H2O2. After 30–60 min of incubation at room temperature, the OD405 values were measured on a microplate reader (Stat-Fax-2100, Awareness Technology Inc., Fisher Bioblock Scientific, Tournai, Belgium) for K d* evaluation.

Row | Substance | Staining of healthy liver sections (TNF-α) | Interaction with the PFBB coated plate [1] | IC50 (human TNF-α [2]) [nM] | IC50 Ab anti-TNF-α/Kd clone ratio (human TNF-α [2]) | Kd BSA/Kd TNF-α ratio (human TNF-α [3]) | Staining of liver sections of ConA-treated mice (TNF-α; C57BL/6 mice, ConA 20 mg/Kg, sacrificed 2 hours after injection)
1 | (C-)PATLTSL(-C) (disulfide) [Clone 2C, biotinylated cyclic form of the PATLTSL peptide (peptide 2)] | did not show such a staining | only a weak interaction |  |  |  | 
2 | C-GSKTQAP-C (disulfide) [Clone C2-R3, phage clone 2 from biopanning round 3 displaying cyclic heptapeptide C-GSKTQAP-C] |  |  | 112 | 1087 | 6 × 10^6 | 
3 | C-NNPLKSL-C (disulfide) [Clone C47-R4, phage clone 47 from round 4 displaying cyclic heptapeptide C-NNPLKSL-C] |  |  |  |  | 0.02 | 
4 | C-PATLTSL-C (disulfide) [Clone C30-R3, phage clone 30 from round 3 displaying cyclic heptapeptide C-PATLTSL-C] |  |  | 127 | 6195 | 4.2 × 10^6 | 
5 | PATLTSL [Clone 2L, biotinylated linear form of the PATLTSL peptide (peptide 2)] |  | only a weak interaction |  |  |  | did not yield such a result
